38 molecules from ChEMBL document CHEMBL5537187, “Discovery of N-(1-(6-Oxo-1,6-dihydropyrimidine)-pyrazole) Acetamide Derivatives as Novel Noncovalent DprE1 Inhibitors against Mycobacterium tuberculosis” (J Med Chem, 2024) can be followed below.

Molecules are shown by their SMILES. Values after ≈ are worked out from the molar mass of the structure shown. Active and inactive are the calls of the source.

In series [1] the test system is Mycobacterium tuberculosis. The series is described as follows: microbe, parasite or virus in culture. The following applies: H37Ra.
Description: Antimycobacterial activity against autoluminescent Mycobacterium tuberculosis H37Ra assessed as inhibition of bacterial growth measured after 3 to 7 days by luminescence based analysis
A short description of the next series: in vitro. To be noted: human, HepG2 cells.
The test system of series [2] is Mycolicibacterium smegmatis. The series is described as follows: Antimycobacterial activity against Mycobacterium smegmatis […] assessed as inhibition of bacterial growth incubated for 48 hrs by spectrophotometer. In kind it is functional.
In series [3] the test system is Mycobacterium tuberculosis. Kind of series: Antimycobacterial activity against Mycobacterium tuberculosis assessed as inhibition of bacterial growth incubated for 24 hrs by alamar blue assay. In kind it is functional. A general note: Alamar Blue is a resazurin reagent that responds to reducing activity.
Series [4] deals with Mycolicibacterium smegmatis. Kind of series: Antimycobacterial activity against Mycobacterium smegmatis […] assessed as inhibition of bacterial growth at 10 uM incubated for 48 hrs by spectrophotometer relative to control. In kind it is functional.
The target in series [5] is T1, Decaprenylphosphoryl-beta-D-ribose oxidase (Mycobacterium tuberculosis (strain ATCC 25618 / H37Rv), UniProt P9WJF1).
T1 sequence (P9WJF1 whole entry): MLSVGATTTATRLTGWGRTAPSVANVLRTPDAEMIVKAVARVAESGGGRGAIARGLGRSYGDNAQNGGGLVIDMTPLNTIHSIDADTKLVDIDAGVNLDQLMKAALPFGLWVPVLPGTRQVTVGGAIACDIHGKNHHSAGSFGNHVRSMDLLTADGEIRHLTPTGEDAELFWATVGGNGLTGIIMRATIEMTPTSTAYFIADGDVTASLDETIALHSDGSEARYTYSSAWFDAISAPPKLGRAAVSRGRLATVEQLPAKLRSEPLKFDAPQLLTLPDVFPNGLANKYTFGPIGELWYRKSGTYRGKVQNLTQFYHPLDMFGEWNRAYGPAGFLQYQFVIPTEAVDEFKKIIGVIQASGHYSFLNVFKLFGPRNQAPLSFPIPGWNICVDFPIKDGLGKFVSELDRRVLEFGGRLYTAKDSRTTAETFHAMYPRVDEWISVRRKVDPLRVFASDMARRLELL
Description: Binding affinity to Mycobacterium tuberculosis DprE1 assessed as dissociation constant by biolayer interferometry

Series [6] in a line: Antimicrobial activity against Clostridium tyrobutyricum assessed as inhibition of microbial growth upto 2 uM. The format is toxicity.
Series [7] is described as follows: Antimicrobial activity against Akkermansia muciniphila assessed as inhibition of microbial growth upto 2 uM. The format is toxicity.
Series [8] in a line: Antimicrobial activity against Lactobacillus reuteri assessed as inhibition of microbial growth upto 2 uM. The following applies: limosilactobacillus reuteri. In kind it is toxicity.
The target of series [9] is T2, Decaprenylphosphoryl-beta-D-ribose oxidase (Mycobacterium tuberculosis (strain ATCC 25618 / H37Rv)) (UniProt P9WJF1).
T2 sequence (whole entry): T1 sequence (P9WJF1 whole entry)
The series is described as follows: Binding affinity to Mycobacterium tuberculosis DprE1 upto 166.7 microM by biolayer interferometry.

For series [10], the system named is Mycolicibacterium smegmatis. Kind of series: Synergistic antimycobacterial activity against Mycobacterium smegmatis assessed as inhibition of bacterial growth at 0.5 times MIC50 incubated for 7 days in presence of 0.5 times MIC50 of rifampicin by checkerboard assay. In kind it is functional, organism-based. To be noted: time 7.0 day.
Series [11] is described as follows: Antimicrobial activity against Bifidobacterium pseudocatenulatum assessed as inhibition of microbial growth upto 2 uM. In kind it is toxicity.
Series [12] is described as follows: Cytotoxicity against human Chang liver cells assessed as inhibition of cell growth. The format is toxicity, cell-based.
Series [13] has as its system Mycolicibacterium smegmatis. The series is described as follows: Synergistic antimycobacterial activity against Mycobacterium smegmatis assessed as inhibition of bacterial growth at 0.5 times MIC50 incubated for 7 days in presence of 0.5 times MIC50 of ethambutol by checkerboard assay. To be noted: time 7.0 day. The format is functional, organism-based.
For series [14], the system named is Mycobacterium tuberculosis. In kind it is functional. The following applies: H37Ra.

Description for in vitro: Cytotoxicity against human HepG2 cells assessed as reduction in cell viability

For the molecule `CCc1cc(=O)[nH]c(-n2nc(C)cc2NC(C)=O)n1`, the MIC90 in [1] is 50 µM (≈ 13.1 µg/mL).
For the molecule `CC(=O)N1N=C(c2c(O)n(-c3ccccc3C)c(=O)[nH]c2=O)CC1c1ccccc1` (centres undefined), in the series “in vitro”, the IC50 (usually the midpoint of a concentration-inhibition curve) was 21 µM. Besides, the MIC (as a rule, the smallest concentration in the dilution series that meets the test's criterion for growth inhibition) in [2] is over 50 µM.
The molecule `COc1ccc2c(=O)[nH]c(-n3nc(C)cc3NC(=O)c3cccc(C)c3)nc2c1` registered an MIC90 in series [1] of 6.43 µM (≈ 2.5 µg/mL).
`CCc1cc(=O)[nH]c(-n2nc(C)cc2N)n1` returned an MIC90 in [1] of 6.25 µM (≈ 1.37 µg/mL).
`CCc1cc(=O)[nH]c(-n2nc(C)cc2NC(=O)c2cccc(F)c2)n1` showed an MIC90 in series [1] of 6.25 µM (≈ 2.13 µg/mL).
In series [1], `Cc1cccc(C(=O)Nc2cc(C)nn2-c2nc3ccc(Cl)cc3c(=O)[nH]2)c1` showed an MIC90 of 1.59 µM (≈ 0.626 µg/mL).
Regarding `CCc1cc(=O)[nH]c(-n2nc(C)cc2NC(=O)c2cccc([N+](=O)[O-])c2)n1`, the MIC90 in [1] came to 3.12 µM (≈ 1.15 µg/mL). The IC50 in “in vitro” turned out to be 55.4 µM. For the same molecule, the MIC in [2] was 0.86 µM (≈ 0.317 µg/mL).
Consider `COc1ncnc(Cn2cc(C(=O)NCCO)c3ncc(C)cc32)c1C` [TBA-7371], for which the MIC90 in [1] was determined as 12.5 µM (≈ 4.44 µg/mL). The molecule further came in with an IC50 in “in vitro” of 165 µM. Also, the MIC in [2] came to 2.54 µM (≈ 0.903 µg/mL).
Molecule `CCc1c(C)nc(-n2nc(C)cc2NC(=O)COc2cccc(C)c2)[nH]c1=O` returned an MIC90 in series [1] of 5.98 µM (≈ 2.28 µg/mL). The same molecule returned an IC50 in the series “in vitro” of 41.2 µM. The MIC in [2] was 7.71 µM (≈ 2.94 µg/mL).
Consider `CCc1c(C)nc(-n2nc(C)cc2NC(=O)CCc2ccc(OC)cc2)[nH]c1=O`, for which the MIC90 in series [1] stood at 6.32 µM (≈ 2.5 µg/mL). The same molecule displayed an IC50 in “in vitro” of 129 µM. Besides, the MIC in series [2] turned out to be 18 µM (≈ 7.11 µg/mL).
Turning to `Cc1cccc(C(=O)Nc2cc(C)nn2-c2nc3ccc(C)cc3c(=O)[nH]2)c1`, the MIC90 in series [1] was found to be 0.84 µM (≈ 0.314 µg/mL).
Regarding `Cc1cc(NC(=O)c2cccc(C(F)(F)F)c2)n(-c2nc3ccccc3c(=O)[nH]2)n1`, in series [1], the MIC90 worked out at 1.51 µM (≈ 0.624 µg/mL).
Turning to `C=CCN1C(=O)NC(=O)/C(=C\NNC(=O)c2ccncc2)C1=O`, the MIC in series [3] came out at 9.75 µM (≈ 3.07 µg/mL).
The molecule `COc1ccc2nc(-n3nc(C)cc3NC(=O)c3cccc(C)c3)[nH]c(=O)c2c1` gave an MIC90 in series [1] of 0.8 µM (≈ 0.312 µg/mL).
On to `Cc1cc(NC(=O)Cc2ccccc2)n(-c2nc3ccccc3c(=O)[nH]2)n1`, for which, in series [1], the MIC90 was found to be 7.22 µM (≈ 2.59 µg/mL).
Turning to `CCc1c(C)nc(-n2nc(C)cc2NC(=O)C2CC(=O)N(c3ccc(C)cc3)C2)[nH]c1=O` (centres undefined), the inhibition (as a rule, the share of the control response that was lost under treatment) at 10 µM in series [4] was 38%. The IC50 in “in vitro” is over 100 µM. Further, the MIC in series [2] was 29.8 µM (≈ 12.9 µg/mL).
As for `Cc1cccc(Nc2cc(C)nn2-c2nc3ccccc3c(=O)[nH]2)c1`, in [1], the MIC90 was 0.94 µM (≈ 0.311 µg/mL).
As to `Cc1cccc(C(=O)Nc2cc(C)nn2-c2nc3ccc(F)cc3c(=O)[nH]2)c1`, in series [1], the MIC90 is 0.83 µM (≈ 0.313 µg/mL).
Still for that read-out and setting: then `CCc1cc(=O)[nH]c(-n2nc(C)cc2NC(=O)c2cccc(C)c2)n1`, with 1.56 µM (≈ 0.526 µg/mL).
As to `CO[C@H]1/C=C/O[C@@]2(C)Oc3c(C)c(O)c4c(O)c(c(/C=N/N5CCN(C)CC5)c(O)c4c3C2=O)NC(=O)/C(C)=C\C=C\[C@H](C)[C@H](O)[C@@H](C)[C@@H](O)[C@@H](C)[C@H](OC(C)=O)[C@@H]1C` [RIFAMPIN], in series [5], binding was characterised by a dissociation constant (Kd) of 93600 µM. Moreover, the results for the Activity entry in series [6], in series [7] and in series [8] were “Toxic”, “Toxic” and “Non-Toxic”, respectively. In addition, the result in [9] was inactive.
In the series “in vitro”, `Cc1cc(NC(=O)c2ccc3ccccc3c2)n(-c2nc3c(c(=O)[nH]2)CCC3)n1` showed an IC50 of 144 µM. In series [2], the MIC is over 50 µM.
Regarding `CCc1cc(=O)[nH]c(-n2nc(C)cc2Nc2cccc(C(F)(F)F)c2)n1`, the Kd (commonly the free concentration of one partner at which half of the binding sites on the other are occupied at equilibrium, for simple one-to-one binding) in [5] came out at 25 µM. Further, the outcome in [10] and in series [13] was Active. Besides, the Activity result in series [11], in [12], in series [6], in [7] and in series [8] was “Non-Toxic” each time. Moreover, the MIC90 in series [1] worked out at 0.78 µM (≈ 0.283 µg/mL). The IC50 in the series “in vitro” is over 100 µM.
The molecule `Cc1nc2ccc(NC(=O)c3cc([N+](=O)[O-])cc([N+](=O)[O-])c3Cl)cc2s1` came in with an IC50 in the series “in vitro” of 86.1 µM. Besides, the MIC in [2] was over 50 µM.
As to `Cc1cccc(C(=O)Nc2cc(C)nn2-c2nc(C3CC3)cc(=O)[nH]2)c1`, the MIC90 in [1] is 3.12 µM (≈ 1.09 µg/mL).
As to `CCc1cc(=O)[nH]c(-n2nc(C)cc2Nc2cccc(C)c2)n1`, the MIC90 in series [1] worked out at 0.78 µM (≈ 0.241 µg/mL).
The same measure, in the same setting: then `Cc1cc(NC(=O)c2cccnc2)n(-c2nc3ccccc3c(=O)[nH]2)n1`, with 1.81 µM (≈ 0.627 µg/mL).
In turn, `CCOc1ccc(CC(=O)Nc2cc(C)nn2-c2nc3c(c(=O)[nH]2)CCC3)cc1` registered an MIC90 in series [1] of 18.5 µM (≈ 7.26 µg/mL). Half-maximal inhibition in the series “in vitro” (IC50) was put at 116 µM. The MIC in series [2] is 18.5 µM (≈ 7.26 µg/mL).
On to `Cc1cccc(C(=O)Nc2cc(C)nn2-c2nc3ccccc3c(=O)[nH]2)c1`, for which the result in [10] and in series [13] was Active. Besides, the Activity result in [11], in series [12], in series [6], in [7] and in series [8] was “Non-Toxic” in each case. This molecule had an MIC90 in [1] of 1.56 µM (≈ 0.561 µg/mL). The IC50 in the series “in vitro” was over 100 µM.
`CCc1cc(=O)[nH]c(-n2nc(C)cc2Nc2cccc([N+](=O)[O-])c2)n1` came in with an MIC90 in series [1] of 1.56 µM (≈ 0.531 µg/mL).
For `CCc1cc(=O)[nH]c(-n2nc(C)cc2NC(=O)C2CCCC2)n1`, the MIC90 in series [1] came to 6.25 µM (≈ 1.97 µg/mL).
Consider `CCc1ccc(N2CC(C(=O)Nc3ccccc3C(=O)Nc3nnc(CC)s3)CC2=O)cc1` (centres undefined), for which the IC50 in “in vitro” was 165 µM. For the same molecule, in [2], the minimum inhibitory concentration (MIC) was over 50 µM.
Consider `CCC(CC)C(=O)Nc1nnc(C2CC(=O)N(c3ccc(C)c(Cl)c3)C2)s1` (centres undefined), for which half-maximal inhibition in “in vitro” (IC50) was put at 43 µM. The MIC in series [2] was over 50 µM.
Turning to `Cc1cc(NC(=O)c2ccc(C)c(C)c2)n(-c2nc(C)c(C)c(=O)[nH]2)n1`, the MIC90 in series [1] turned out to be 3.56 µM (≈ 1.25 µg/mL). This molecule came in with an IC50 in “in vitro” of 38.7 µM. The MIC in [2] is 1.06 µM (≈ 0.372 µg/mL).
With `CCOC(=O)C(=O)Nc1cc(C)nn1-c1nc(C)c(CC)c(=O)[nH]1`, the MIC90 in series [1] was 30.6 µM (≈ 10.2 µg/mL). The molecule also came in with a half-maximal inhibitory concentration (IC50) in “in vitro” of 83.8 µM. Further, in series [2], the MIC was 30.6 µM (≈ 10.2 µg/mL).
`Cc1cccc(C(=O)Nc2cc(C)nn2-c2nc3cc(Cl)ccc3c(=O)[nH]2)c1` came in with an MIC90 in [1] of 3.18 µM (≈ 1.25 µg/mL).
As to `NNC(=O)c1ccncc1` [ISONIAZID], the Activity result in series [11] is “Toxic”; in series [6] it was “Toxic”; in series [8], “Non-Toxic”. In addition, the MIC90 in series [1] amounted to 0.78 µM (≈ 0.107 µg/mL). For the same molecule, in “in vitro”, the IC50 was over 100 µM.
For the molecule `O=C(Cc1ccccc1)NNC(=O)c1cc([N+](=O)[O-])cc([N+](=O)[O-])c1`, the MIC in series [14] worked out at 1.25 µM (≈ 0.43 µg/mL).
Turning to `Cc1cccc(C(=O)Nc2cc(C)nn2-c2nc3cc(F)ccc3c(=O)[nH]2)c1`, the MIC90 in series [1] amounted to 1.66 µM (≈ 0.626 µg/mL).
